# Results reported in patent US11883526B2 (priority 2019, dated 2024).
# Read-outs that look alike come from different tables or passages of the source. Marks after values point to notes of the source that are not given here.
# Experiments:
# MDD/TRD subjects = settings: quetiapine 52-week safety study; Symbyax over 76 weeks; cited from earlier work
# [1] = system: female Sprague-Dawley rats; test: Single dose neurotoxicity study: mortality, clinical observations, body weight; assay type: in vivo, rat
# Procedure: The injection volume was 5 mL/kg.
# Body weight and body weight gain were measured daily.
# [2] = Pharmacokinetics of intranasal esketamine in healthy subjects (Example 9); settings: for AUClast / AUC∞ / t1/2 / Cmax / Metabolite/Parent Ratio AUClast / Metabolite/Parent Ratio Cmax / Metabolite/Parent Ratio AUC∞: mean; for tmax: median; for Metabolite/Parent Ratio AUClast / Metabolite/Parent Ratio Cmax / Metabolite/Parent Ratio AUC∞: noresketamine/esketamine
# Procedure: This was an open-label, single-center study. The subjects were healthy Caucasian men and women, 20 to 55 years of age, inclusive. […] The solution consisted of:
# Blood samples (4 mL each) for determination of esketamine and noresketamine plasma concentrations were collected into the appropriate collection tube (e.g., Vacutainer®) at timepoints 0.00, 0.12, 0.20, 0.37, 0.53, 0.67, 0.83, 1.00, 1.25, 1.50, 2.00, 3.00, 4.00, 6.00, 9.00, 12.00, 18.00, and 24.00 h. The total amount of blood to be drawn for clinical laboratory tests and PK evaluations is approximately 327 mL.
# Plasma samples were analyzed for esketamine and noresketamine concentrations using the validated, specific and sensitive liquid chromatography coupled to tandem mass spectrometry (LC-MS/MS) achiral method of Example 8.
# Serial PK blood samples (4 mL each) were collected for a 24-hour period from each subject (Periods 1, 2, and 3). […] Statistical Methods 1.6.4.1. Sample Size
# The following key parameters of esketamine and noresketamine in plasma were calculated using noncompartmental methods and actual sampling times: Cmax, tmax, AUClast, AUC∞, t1/2,λ, and λz.
# [3] = From the text: This example provides an LC-MS/MS method for the determination of ketamine and norketamine in sodium heparin human plasma using ketamine-d4 and norketamine-d4 as the respective internal standards (IS).
# [4] = single dose study, (+)MK-801 maleate 1 mg/kg subcutaneous
# [5] = noresketamine after esketamine 28 mg
# [6] = noresketamine after esketamine 56 mg
# [7] = noresketamine after esketamine 56 mg, n = 13
# [8] = noresketamine after esketamine 84 mg
# [9] = noresketamine after esketamine 84 mg, n = 12
compound,measurement,setting,value
OCCOCCN1CCN(C2=Nc3ccccc3Sc3ccccc32)CC1 [quetiapine],rate of discontinuation due to adverse events in long-term study in MDD/TRD subjects,MDD/TRD subjects,23.7%
(+)MK-801 maleate [reference compound],body weight loss,"[1]; 1 mg/kg sc, first 48 hours after treatment",13-14%
same,mortality,"[1]; single sc dose 1 mg/kg, single and repeated dose studies",No mortality
C[C@]12N[C@H](Cc3ccccc31)c1ccccc12.O=C(O)/C=C\C(=O)O [Positive control],Clinical observation incidence: Ataxia,[1]; [4],27/30 ***
same,Clinical observation incidence: Catalepsy,[1]; [4],15/30 ***
same,Clinical observation incidence: Chromodacryorrhea,[1]; [4],24/30 ***
same,Clinical observation incidence: Decreased general activity,[1]; [4],30/30 ***
same,Clinical observation incidence: Decubitus,[1]; [4],30/30 ***
same,Clinical observation incidence: Increased general activity,[1]; [4],4/30
same,Clinical observation incidence: Narrowed palpebral fissure,[1]; [4],4/30
same,Clinical observation incidence: Piloerection,[1]; [4],8/30**
same,Clinical observation incidence: Salivation (out of normal),[1]; [4],17/30 ***
same,Clinical observation incidence: bradypnoea,[1]; [4],12/30 ***
N[C@]1(c2ccccc2Cl)CCCCC1=O [noresketamine],"mean ratio of noresketamine to esketamine, AUClast","[2]; across 28, 56 and 84 mg",3.62 to 4.32
same,"mean ratio of noresketamine to esketamine, AUC∞","[2]; across 28, 56 and 84 mg",3.80 to 4.46
same,"mean ratio of noresketamine to esketamine, Cmax","[2]; across 28, 56 and 84 mg",1.96 to 2.55
same,mean t1/2,"[2]; across 28, 56 and 84 mg",7.48 to 7.74 h
same,variability of AUC (AUClast and AUC∞),[2]; across the 3 treatment groups,17.0% to 21.3
same,variability of Cmax (percent coefficient of variation),[2]; across the 3 treatment groups,25.8% to 33.7
same,median tmax,"[2]; healthy subjects, across 28, 56 and 84 mg intranasal regimens",1.25 to 1.5 h
same,AUClast,[2]; [5],454 ng·h/mL
same,AUC∞,[2]; [5],508 ng·h/mL
same,t1/2,[2]; [5],7.74 h
same,tmax,[2]; [5],1.25 h
same,AUClast,[2]; [6],851 ng·h/mL
same,AUC∞,[2]; [7],924^c h*ng/mL
same,t1/2,[2]; [7],7.71^c h
same,tmax,[2]; [6],1.50 h
same,AUClast,[2]; [8],1287 ng·h/mL
same,AUC∞,[2]; [9],1392^b h*ng/mL
same,t1/2,[2]; [9],7.48^b h
same,tmax,[2]; [8],1.50 h
same,Cmax,[2]; noresketamine in plasma after intranasal esketamine 28 mg (Treatment A),92.8 ng/mL
same,Cmax,[2]; noresketamine in plasma after intranasal esketamine 56 mg (Treatment B),154 ng/mL
same,Cmax,[2]; noresketamine in plasma after intranasal esketamine 84 mg (Treatment C),241 ng/mL
same,Metabolite/Parent Ratio AUClast,[2]; esketamine 28 mg,3.62
same,Metabolite/Parent Ratio Cmax,[2]; esketamine 28 mg,1.96
same,Metabolite/Parent Ratio AUC∞,"[2]; esketamine 28 mg, n = 12",3.80^b
same,Metabolite/Parent Ratio AUClast,[2]; esketamine 56 mg,4.07
same,Metabolite/Parent Ratio Cmax,[2]; esketamine 56 mg,2.28
same,Metabolite/Parent Ratio AUC∞,"[2]; esketamine 56 mg, n = 12",4.22^b
same,Metabolite/Parent Ratio AUClast,[2]; esketamine 84 mg,4.32
same,Metabolite/Parent Ratio Cmax,[2]; esketamine 84 mg,2.55
same,Metabolite/Parent Ratio AUC∞,"[2]; esketamine 84 mg, n = 11",4.46^d
NC1(c2ccccc2Cl)CCCCC1=O (centres unmarked) [Norketamine],QC sample freeze/thaw stability,[3]; freeze (−20° C.)/thaw (ice-water bath),3 freeze (−20° C.)/thaw (ice-water bath) cycles
same,QC sample freeze/thaw stability,[3]; freeze (−20° C.)/thaw (room temperature),3 freeze (−20° C.)/thaw (room temperature) cycles
same,QC sample long-term storage stability,[3]; human plasma QC sample at −20° C.,1552 days at −20 °C
same,QC sample bench-top stability,"[3]; human plasma QC sample, room temperature",68.5 hours at room temp
same,Stock solution stability (spike solutions),[3]; ketamine/norketamine spike solutions at −20° C.,610 days at −20 °C for ketamine/norketamine spike solutions
same,Processed sample stability,[3]; room temperature,146.5 hours at room temperature
same,Whole Blood Stability,[3]; room temperature and ice-water bath (0-4° C.),120 minutes at room temperature and in an ice-water bath (0-4° C.)
same,Stock solution stability,[3]; stock solutions at room temperature under white light,6 h
same,Stock solution stability,[3]; stock solutions at −20° C.,15100 h
